Results reported in paper PMC10739260, “Shape-Based Virtual Screening of a Billion-Compound Library Identifies Mycobacterial Lipoamide Dehydrogenase Inhibitors” (ACS Bio & Med Chem Au, 2023).
Like-named read-outs stand apart in the source and are kept apart here.

Experiments:
Mtb Lpd [1] = target: T1, Mtb Lpd (Mycobacterium tuberculosis, UniProt P9WHH9); experiment: Lpd enzyme assay (spectrophotometric, DTNB, lipoamide, NADH); assay type: biochemical; conditions: for inhibition at 10 µM: compound at 10 μM, read-out: LPD %inh ± SD at 10 μM; for IC50: dose response 100 to 0.005 μM, values marked * from one replicate; for potency improvement over des-methyl screen hit: methylated analogue vs Z1765676493 / Z819807984, Lpd IC50
T1 construct: made in house
Procedure: The Lpd enzyme assay was performed at a CRO with a previously reported protocol.[9],[11] Briefly, the Lpd activity was measured by a spectrophotometric assay with DTNB, lipoamide, and NADH. Final concentrations of components in the reaction mixture were as follows: 125 μM NADH, 125 μM DTNB, 40 μM NAD+, 75 μM lipoamide in 25 mM potassium phosphate, and 1 mM EDTA pH 7.0. Compounds were tested initially at 10 μM. Compounds showing significant inhibition at 10 μM were tested in dose–response from 100 to 0.005 μM by serial dilutions. Curves were fit, and IC50 values were calculated using Prism dose–response inhibition analysis (four-parameter fit).

Mtb [2] = system: Mtb; design: method as in PMID 33527832; conditions: Figure 1, representative sulfonamide series inhibitors; cited from earlier work
Mtb [3] = experiment: Mtb MIC assay (bacterial growth inhibition); assay type: cell-based, Mycobacterium tuberculosis; conditions: for Mtb MIC: Table S1, known actives used as probes in GPU Shape screen
Lpd protein = target: T2, Lpd protein (Mycobacterium tuberculosis, UniProt P9WHH9); experiment: Surface plasmon resonance (SPR) binding to immobilized Lpd; conditions: 25 °C
T2 construct: made in house
T2 sequence (P9WHH9 1-464): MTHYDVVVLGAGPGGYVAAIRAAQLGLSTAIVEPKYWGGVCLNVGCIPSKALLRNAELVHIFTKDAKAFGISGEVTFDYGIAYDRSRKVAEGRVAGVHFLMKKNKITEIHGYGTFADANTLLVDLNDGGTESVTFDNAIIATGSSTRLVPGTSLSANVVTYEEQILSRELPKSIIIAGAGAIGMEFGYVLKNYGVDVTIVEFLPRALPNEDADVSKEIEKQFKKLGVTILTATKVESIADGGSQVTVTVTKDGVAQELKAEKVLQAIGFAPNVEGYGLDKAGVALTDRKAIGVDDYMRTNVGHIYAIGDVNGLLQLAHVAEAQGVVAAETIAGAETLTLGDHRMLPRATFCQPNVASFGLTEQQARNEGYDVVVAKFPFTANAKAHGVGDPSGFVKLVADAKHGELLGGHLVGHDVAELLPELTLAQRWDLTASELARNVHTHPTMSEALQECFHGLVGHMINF

PDH complex = target: T3, PDH complex (Mycobacterium tuberculosis, UniProt P9WHH9); experiment: PDH complex inhibition; assay type: biochemical
T3 sequence (P9WHH9 1-464): T2 sequence (P9WHH9 1-464)

Mtb Lpd [4] = target: T1, Mtb Lpd; conditions: read-out: Lpd IC50; Figure 1, representative sulfonamide series inhibitors; cited from earlier work
[5] = 1:1 Langmuir model, analyte line 013537

In the case of COC(=O)c1cccc(NC2CCN(C(=O)c3cc(C)cc4cn[nH]c34)CC2)c1 [Compound Z1464810837], the inhibition at 10 µM (Mtb Lpd [1]) is reported as 15.7 ± 4.6% and the IC50 (Mtb Lpd [1]) is reported as 30 µM.
In the case of CCN(CC(=O)Nc1ccc(N2CCOCC2)cc1)S(=O)(=O)c1ccc(F)c(C(F)(F)F)c1 [Compound Z819807984], the inhibition at 10 µM (Mtb Lpd [1]) is reported as 68.9 ± 0.9% and the IC50 (Mtb Lpd [1]) is reported as 5 ± 0.04 µM.
For CCN(CC(=O)Nc1ccc(N2CCOCC2)cc1)S(=O)(=O)c1cc(C)c(F)c(C(F)(F)F)c1 [Compound 2], the IC50 (Mtb Lpd [1]) was 0.37 µM and the “potency improvement over des-methyl screen hit” value (Mtb Lpd [1]) was 15- to 20 fold.
For COc1ccc(NC(=O)CN(C)S(=O)(=O)c2cc(Br)cnc2N)cc1 [SL827], the “Mtb MIC” value (Mtb [2]) is listed as > 100 µM.
Work on CC(=O)Nc1cccc(NC(=O)CN(C)S(=O)(=O)c2cccc(C(F)F)c2)c1 [Compound Z1765676493] yielded an inhibition at 10 µM (Mtb Lpd [1]) of 69.1 ± 2.2% and an IC50 (Mtb Lpd [1]) of 3.5 ± 2.8 µM.
For Cc1cc(S(=O)(=O)N(C)CC(=O)Nc2ccn(C)c(=O)c2)c2[nH]ncc2c1 [TDI-010705], the “Mtb MIC” value (Mtb [3]) is given as 4 µM and the “Mtb MIC” value (Mtb [2]) is given as 3.7 µM.
For CC(=O)Nc1cccc(NC(=O)CN(C)S(=O)(=O)c2cc(C)cc(C(F)F)c2)c1 [1 (TDI-13537)], the “potency improvement over des-methyl screen hit” value (Mtb Lpd [1]) was 15- to 20 fold, the “inhibition of Mtb bacterial growth in the MIC assay” value (Mtb [3]; data not shown) was “did not show inhibition” and the Kd (Lpd protein; [5]) was 0.241 µM. It also gave a kd (Lpd protein; [5]) of 0.01243 s⁻¹, a Kd (Lpd protein; analyte line 013537-NADH) of 0.291 µM and a kd (Lpd protein; analyte line 013537-NADH) of 0.01141 s⁻¹.
For Cc1cc(S(=O)(=O)N2CCC[C@H]2C(=O)Nc2ccn(C)c(=O)c2)c2[nH]ncc2c1 [TDI-011002], the IC50 (PDH complex) is given as 0.19 µM, the “Mtb MIC” value (Mtb [3]) is given as 25 µM and the IC50 (Mtb Lpd [4]) is given as 0.05 µM. The “Mtb MIC” value (Mtb [2]) was 25 µM.
In the case of CCN(CC(=O)Nc1cccc(OC)c1)S(=O)(=O)c1cccc2c1NC(=O)CO2 [Compound Z1601661851], the inhibition at 10 µM (Mtb Lpd [1]) is reported as 18.5 ± 1.6% and the IC50 (Mtb Lpd [1]) is reported as 30 µM.
CCOC(=O)c1c(C)n[nH]c1S(=O)(=O)N(C)CC(=O)Nc1ccc(F)cc1 [Compound Z740306332] gave an inhibition at 10 µM (Mtb Lpd [1]) of 9.6 ± 1.8% and an IC50 (Mtb Lpd [1]) of 100 µM.
CN(CC(=O)Nc1cccc(F)c1)S(=O)(=O)c1cccc2c1NC(=O)CO2 [Compound Z1601662276] gave an inhibition at 10 µM (Mtb Lpd [1]) of 12.7 ± 1.2% and an IC50 (Mtb Lpd [1]) of 100 µM.
